# Assay results published in patent publication US20250163104A1, “MACROCYCLIC IMMUNOMODULATORS” (priority 2021, published 2025).
# *1 amine or outer side, *2 acyl side, *3 side chain or, on linkers, in order; H or OH if unused. Where a SMILES comes first, the peptide text is derived from it. Bridges are numbered along the chain shown (N, C = ends). [ ]: non-standard residue; d: D form. Bip(4'-COOH) = N[C@@H](Cc1ccc(-c2ccc(C(=O)O)cc2)cc1)C(=O)O; X5 = O=C([C@H](Cc1ccc2ncccc2c1)N[*:1])[*:2]; Bip = N[C@@H](Cc1ccc(-c2ccccc2)cc1)C(=O)O; Phe(4-NH2) = Nc1ccc(C[C@H](N)C(=O)O)cc1; 3Pal = N[C@@H](Cc1cccnc1)C(=O)O; 4Pal = N[C@@H](Cc1ccncc1)C(=O)O; Cha = N[C@@H](CC1CCCCC1)C(=O)O; Orn = NCCC[C@H](N)C(=O)O; Dab = NCC[C@H](N)C(=O)O; Dap = NC[C@H](N)C(=O)O
# Molecular target: T1, human PD-1 / PD-L1-Ig binding on Jurkat cell line over-expressing human PD-1 (Jurkat-PD-1) (Homo sapiens, UniProt Q15116)
# T1 construct: expressed in transfected cells; host or cells: Jurkat
# Test: Jurkat-PD-1 Cell Binding High-Content Screening Assay (CBA)
# Type: cell-based
# Settings: Jurkat-PD-1 cells, PE-labeled PD-L1-Ig 20 nM final; read-out: Jurkat HPD1_PDL1 IC50
# Summary of the method: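 Jurkat-hPD-1 cells in DMEM with 10% fetal calf serum receive test compound and are held at 37° C for 2 h. PE-labeled PD-L1-Ig is added at 20 nM final and left for 1 hour. Cells are then fixed and Hoechst-stained, and binding is measured by imaging.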
# T1 sequence (Q15116 25-288): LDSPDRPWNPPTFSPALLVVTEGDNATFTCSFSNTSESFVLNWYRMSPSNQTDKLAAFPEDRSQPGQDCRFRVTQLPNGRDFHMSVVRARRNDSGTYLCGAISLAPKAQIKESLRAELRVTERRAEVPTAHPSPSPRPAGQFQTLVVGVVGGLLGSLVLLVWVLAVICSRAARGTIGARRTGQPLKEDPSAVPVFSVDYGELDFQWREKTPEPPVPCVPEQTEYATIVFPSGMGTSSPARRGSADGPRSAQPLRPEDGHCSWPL
row,SMILES,IC50 [nM]
1,CC(C)C[C@H]1NC(=O)[C@H](CCCN)NC(=O)[C@H](CCC(=O)O)NC(=O)[C@H](Cc2ccc(-c3ccccc3)cc2)NC(=O)[C@H](C(C)C)NC(=O)[C@H](Cc2c[nH]c3ccccc23)NC(=O)[C@H](CC(=O)O)NC(=O)[C@H](Cc2ccc(-c3ccc(C(=O)O)cc3)cc2)NC(=O)[C@H](Cc2ccncc2)NC(=O)CSC[C@@H](C(=O)N[C@@H](C)C(N)=O)NC(=O)[C@H]([C@@H](C)O)NC(=O)[C@H](C(C)C)NC(=O)[C@H](CC2CCCCC2)NC(=O)[C@H](CCN)NC1=O [Compound 2169],40.8
2,CC(C)C[C@H]1NC(=O)[C@H](CCCN)NC(=O)[C@H](CCC(=O)O)NC(=O)[C@H](Cc2ccc(-c3ccccc3)cc2)NC(=O)[C@H](C(C)C)NC(=O)[C@H](Cc2c[nH]c3ccccc23)NC(=O)[C@H](CC(=O)O)NC(=O)[C@H](Cc2cccnc2)NC(=O)[C@H](Cc2ccc(OCC(=O)O)cc2)NC(=O)CSC[C@@H](C(=O)N[C@@H](C)C(N)=O)NC(=O)[C@H]([C@@H](C)O)NC(=O)[C@H](C(C)C)NC(=O)[C@H](CC2CCCCC2)NC(=O)[C@H](CCN)NC1=O [Compound 2173],16.8
3,CC(C)C[C@H]1NC(=O)[C@H](CCCN)NC(=O)[C@H](CCC(=O)O)NC(=O)[C@H](Cc2ccc(-c3ccccc3)cc2)NC(=O)[C@H](C(C)C)NC(=O)[C@H](Cc2c[nH]c3ccccc23)NC(=O)[C@H](CC(=O)O)NC(=O)[C@H](Cc2cccnc2)NC(=O)[C@H](Cc2ccncc2)NC(=O)CSC[C@@H](C(=O)N[C@@H](C)C(N)=O)NC(=O)[C@H]([C@@H](C)O)NC(=O)[C@H](C(C)C)NC(=O)[C@H](CC2CCCCC2)NC(=O)[C@H](CCN)NC1=O [Compound 2174] ({CH2CO}-[4Pal][3Pal]DWV[Bip]E[Orn][dL][Dab][Cha]VTCA-NH2; thioether N-14),17.7
4,CC(C)C[C@H]1NC(=O)[C@H](CCCN)NC(=O)[C@H](CCC(=O)O)NC(=O)[C@H](Cc2ccc(-c3ccccc3)cc2)NC(=O)[C@H](C(C)C)NC(=O)[C@H](Cc2c[nH]c3ccccc23)NC(=O)[C@H](CC(=O)O)NC(=O)[C@H](Cc2ccc3ncccc3c2)NC(=O)[C@H](CC(N)=O)NC(=O)CSC[C@@H](C(=O)N[C@@H](C)C(N)=O)NC(=O)[C@H]([C@@H](C)O)NC(=O)[C@H](C(C)C)NC(=O)[C@H](CC2CCCCC2)NC(=O)[C@H](CCN)NC1=O [Compound 2175] ({CH2CO}-N[X5]DWV[Bip]E[Orn][dL][Dab][Cha]VTCA-NH2; thioether N-14),69.4
5,CC(C)C[C@H]1NC(=O)[C@H](CCCN)NC(=O)[C@H](CCC(=O)O)NC(=O)[C@H](Cc2ccc(-c3ccccc3)cc2)NC(=O)[C@H](C(C)C)NC(=O)[C@H](Cc2c[nH]c3ccccc23)NC(=O)[C@H](CC(=O)O)NC(=O)[C@H](Cc2ccc3ncccc3c2)NC(=O)[C@H](CN)NC(=O)CSC[C@@H](C(=O)N[C@@H](C)C(N)=O)NC(=O)[C@H]([C@@H](C)O)NC(=O)[C@H](C(C)C)NC(=O)[C@H](CC2CCCCC2)NC(=O)[C@H](CCN)NC1=O [Compound 2177] ({CH2CO}-[Dap][X5]DWV[Bip]E[Orn][dL][Dab][Cha]VTCA-NH2; thioether N-14),128
6,CC(C)C[C@H]1NC(=O)[C@H](CCCN)NC(=O)[C@H](CCC(=O)O)NC(=O)[C@H](Cc2ccc(-c3ccccc3)cc2)NC(=O)[C@H](C(C)C)NC(=O)[C@H](Cc2c[nH]c3ccccc23)NC(=O)[C@H](CC(=O)O)NC(=O)[C@H](Cc2ccc3ncccc3c2)NC(=O)[C@H](Cc2ccc(OCC(=O)O)cc2)NC(=O)CSC[C@@H](C(=O)N[C@@H](C)C(N)=O)NC(=O)[C@H]([C@@H](C)O)NC(=O)[C@H](C(C)C)NC(=O)[C@H](CC2CCCCC2)NC(=O)[C@H](CCN)NC1=O [Compound 2178],52.7
7,CC(C)C[C@H]1NC(=O)[C@H](CCCN)NC(=O)[C@H](CCC(=O)O)NC(=O)[C@H](Cc2ccc(-c3ccccc3)cc2)NC(=O)[C@H](C(C)C)NC(=O)[C@H](Cc2c[nH]c3ccccc23)NC(=O)[C@H](CC(=O)O)NC(=O)[C@H](Cc2ccc3ncccc3c2)NC(=O)[C@H](Cc2ccncc2)NC(=O)CSC[C@@H](C(=O)N[C@@H](C)C(N)=O)NC(=O)[C@H]([C@@H](C)O)NC(=O)[C@H](C(C)C)NC(=O)[C@H](CC2CCCCC2)NC(=O)[C@H](CCN)NC1=O [Compound 2179] ({CH2CO}-[4Pal][X5]DWV[Bip]E[Orn][dL][Dab][Cha]VTCA-NH2; thioether N-14),65.1
8,CC(C)C[C@H]1NC(=O)[C@H](CCCN)NC(=O)[C@H](CCC(=O)O)NC(=O)[C@H](Cc2ccc(-c3ccccc3)cc2)NC(=O)[C@H](C(C)C)NC(=O)[C@H](Cc2c[nH]c3ccccc23)NC(=O)[C@H](CC(=O)O)NC(=O)[C@H](Cc2ccc(N)cc2)NC(=O)[C@H](CC(N)=O)NC(=O)CSC[C@@H](C(=O)N[C@@H](C)C(N)=O)NC(=O)[C@H]([C@@H](C)O)NC(=O)[C@H](C(C)C)NC(=O)[C@H](CC2CCCCC2)NC(=O)[C@H](CCN)NC1=O [Compound 2180] ({CH2CO}-N[Phe(4-NH2)]DWV[Bip]E[Orn][dL][Dab][Cha]VTCA-NH2; thioether N-14),28.1
9,CC(C)C[C@H]1NC(=O)[C@H](CCCN)NC(=O)[C@H](CCC(=O)O)NC(=O)[C@H](Cc2ccc(-c3ccccc3)cc2)NC(=O)[C@H](C(C)C)NC(=O)[C@H](Cc2c[nH]c3ccccc23)NC(=O)[C@H](CC(=O)O)NC(=O)[C@H](Cc2ccc(N)cc2)NC(=O)[C@H](Cc2ccccc2)NC(=O)CSC[C@@H](C(=O)N[C@@H](C)C(N)=O)NC(=O)[C@H]([C@@H](C)O)NC(=O)[C@H](C(C)C)NC(=O)[C@H](CC2CCCCC2)NC(=O)[C@H](CCN)NC1=O [Compound 2181] ({CH2CO}-F[Phe(4-NH2)]DWV[Bip]E[Orn][dL][Dab][Cha]VTCA-NH2; thioether N-14),26.4

# Continued, values first:
row,IC50 [nM],SMILES
1,17.2,CC(C)C[C@H]1NC(=O)[C@H](CCCN)NC(=O)[C@H](CCC(=O)O)NC(=O)[C@H](Cc2ccc(-c3ccccc3)cc2)NC(=O)[C@H](C(C)C)NC(=O)[C@H](Cc2c[nH]c3ccccc23)NC(=O)[C@H](CC(=O)O)NC(=O)[C@H](Cc2ccc(-c3ccc(C(=O)O)cc3)cc2)NC(=O)[C@H](Cc2ccccc2)NC(=O)CSC[C@@H](C(=O)N[C@@H](C)C(N)=O)NC(=O)[C@H]([C@@H](C)O)NC(=O)[C@H](C(C)C)NC(=O)[C@H](CC2CCCCC2)NC(=O)[C@H](CCN)NC1=O [Compound 2167] ({CH2CO}-F[Bip(4'-COOH)]DWV[Bip]E[Orn][dL][Dab][Cha]VTCA-NH2; thioether N-14)
2,19.6,CC(C)C[C@H]1NC(=O)[C@H](CCCN)NC(=O)[C@H](CCC(=O)O)NC(=O)[C@H](Cc2ccc(-c3ccccc3)cc2)NC(=O)[C@H](C(C)C)NC(=O)[C@H](Cc2c[nH]c3ccccc23)NC(=O)[C@H](CC(=O)O)NC(=O)[C@H](Cc2ccc(-c3ccc(C(=O)O)cc3)cc2)NC(=O)[C@H](Cc2ccc(OCC(=O)O)cc2)NC(=O)CSC[C@@H](C(=O)N[C@@H](C)C(N)=O)NC(=O)[C@H]([C@@H](C)O)NC(=O)[C@H](C(C)C)NC(=O)[C@H](CC2CCCCC2)NC(=O)[C@H](CCN)NC1=O [Compound 2168]
3,5.4,CC(C)C[C@H]1NC(=O)[C@H](CCCN)NC(=O)[C@H](CCC(=O)O)NC(=O)[C@H](Cc2ccc(-c3ccccc3)cc2)NC(=O)[C@H](C(C)C)NC(=O)[C@H](Cc2c[nH]c3ccccc23)NC(=O)[C@H](CC(=O)O)NC(=O)[C@H](Cc2cccnc2)NC(=O)[C@H](CC(N)=O)NC(=O)CSC[C@@H](C(=O)N[C@@H](C)C(N)=O)NC(=O)[C@H]([C@@H](C)O)NC(=O)[C@H](C(C)C)NC(=O)[C@H](CC2CCCCC2)NC(=O)[C@H](CCN)NC1=O [Compound 2170] ({CH2CO}-N[3Pal]DWV[Bip]E[Orn][dL][Dab][Cha]VTCA-NH2; thioether N-14)
4,19.1,CC(C)C[C@H]1NC(=O)[C@H](CCCN)NC(=O)[C@H](CCC(=O)O)NC(=O)[C@H](Cc2ccc(-c3ccccc3)cc2)NC(=O)[C@H](C(C)C)NC(=O)[C@H](Cc2c[nH]c3ccccc23)NC(=O)[C@H](CC(=O)O)NC(=O)[C@H](Cc2cccnc2)NC(=O)[C@H](Cc2ccccc2)NC(=O)CSC[C@@H](C(=O)N[C@@H](C)C(N)=O)NC(=O)[C@H]([C@@H](C)O)NC(=O)[C@H](C(C)C)NC(=O)[C@H](CC2CCCCC2)NC(=O)[C@H](CCN)NC1=O [Compound 2171] ({CH2CO}-F[3Pal]DWV[Bip]E[Orn][dL][Dab][Cha]VTCA-NH2; thioether N-14)
5,23.7,CC(C)C[C@H]1NC(=O)[C@H](CCCN)NC(=O)[C@H](CCC(=O)O)NC(=O)[C@H](Cc2ccc(-c3ccccc3)cc2)NC(=O)[C@H](C(C)C)NC(=O)[C@H](Cc2c[nH]c3ccccc23)NC(=O)[C@H](CC(=O)O)NC(=O)[C@H](Cc2cccnc2)NC(=O)[C@H](CN)NC(=O)CSC[C@@H](C(=O)N[C@@H](C)C(N)=O)NC(=O)[C@H]([C@@H](C)O)NC(=O)[C@H](C(C)C)NC(=O)[C@H](CC2CCCCC2)NC(=O)[C@H](CCN)NC1=O [Compound 2172] ({CH2CO}-[Dap][3Pal]DWV[Bip]E[Orn][dL][Dab][Cha]VTCA-NH2; thioether N-14)
6,111,CC(C)C[C@H]1NC(=O)[C@H](CCCN)NC(=O)[C@H](CCC(=O)O)NC(=O)[C@H](Cc2ccc(-c3ccccc3)cc2)NC(=O)[C@H](C(C)C)NC(=O)[C@H](Cc2c[nH]c3ccccc23)NC(=O)[C@H](CC(=O)O)NC(=O)[C@H](Cc2ccc3ncccc3c2)NC(=O)[C@H](Cc2ccccc2)NC(=O)CSC[C@@H](C(=O)N[C@@H](C)C(N)=O)NC(=O)[C@H]([C@@H](C)O)NC(=O)[C@H](C(C)C)NC(=O)[C@H](CC2CCCCC2)NC(=O)[C@H](CCN)NC1=O [Compound 2176] ({CH2CO}-F[X5]DWV[Bip]E[Orn][dL][Dab][Cha]VTCA-NH2; thioether N-14)
7,16,CC(C)C[C@H]1NC(=O)[C@H](CCCN)NC(=O)[C@H](CCC(=O)O)NC(=O)[C@H](Cc2ccc(-c3ccccc3)cc2)NC(=O)[C@H](C(C)C)NC(=O)[C@H](Cc2c[nH]c3ccccc23)NC(=O)[C@H](CC(=O)O)NC(=O)[C@H](Cc2ccc(N)cc2)NC(=O)[C@H](CN)NC(=O)CSC[C@@H](C(=O)N[C@@H](C)C(N)=O)NC(=O)[C@H]([C@@H](C)O)NC(=O)[C@H](C(C)C)NC(=O)[C@H](CC2CCCCC2)NC(=O)[C@H](CCN)NC1=O [Compound 2182]
